Test results from patent US8679766B2, “E-cadherin as a biomarker of gastroesophageal reflux disease” (The University of North Carolina at Chapel Hill, priority 2009, dated 2014).
Entries after “also recorded” stand apart in the source; their conditions may differ. Like-named read-outs stand apart in the source and are kept apart here.

Assays:
[1] = tested on: cleavage of E-cad in rabbit EE; experiment: Acid-activated cleavage of E-cad in Ussing-chambered rabbit EE, W-blot for CTF with C-terminal antibody 4A2C7; format: cell-based
esophagitis [2] = details: rat model of reflux; cited from earlier work
esophagitis [3] = details: patients with duodeno-esophageal reflux post-gastrectomy; cited from earlier work
rabbit EE [4] = experiment: Barrier breaker search: rabbit EE in U-chambers, monitoring RT (marker of PCP) and Isc; format: cell-based
Text: Agents that increase paracellular permeability (PCP) in EE are potential contributors to GERD by enabling diffusion of luminal acid into the intercellular space. Therefore, substances were sought within the refluxate, meals and inflammation that could ‘break the barrier’. This was done by exposing rabbit EE in U-chambers to candidate inflammatory agents while both monitoring RT, as a marker of PCP, and Isc (short circuit current), as a marker of active transport. The inflammatory agents were selected based on presence in EE or on reports that they can break the barrier in other epithelia (47-60).

rabbit EE [5] = experiment: Junctional opening (RT) of EE by exposure to luminal HCl pH 1.6; format: cell-based; details: microtubule stabilizer taxol
rabbit EE [6] = experiment: Ca++-switch technique: junctional opening and resealing (RT) in EE; format: cell-based
Text: Below the TJ is the adherens junction (AJ), a structure that encircles the cell and initiates and stabilizes cell-cell adhesion, and by doing so, the AJ supports the barrier function of the TJ (36, 37). The single-pass, transmembrane protein of the AJ is the Ca^++-dependent E-cadherin (E-cad) and this connects directly to a group of catenins (α-catenin, β-catenin, p120-catenin), which in turn connect E-cad to the cytoskeleton via α-catenin's interaction with actin microfilaments, to the microtubules via p120-catenin's interaction with PLEKHA7/nezha and tubulins (38, 39), and to the TJ via p120-catenin's binding to ZO-136. Cell-cell adhesion by E-cad results from the Ca^++-dependent, homotypic, association between the extracellular domains of neighboring cells. Indeed, the Ca^++ sensitivity is so characteristic that it forms the basis of the ‘Ca^++-switch technique’ where Ca^++ removal from both bathing solutions results in junctional opening (decline in RT) and its restoration results in ‘resealing’ (recovery of RT) (40). This method was used to define the role of E-cad in junctional adhesion in EE (41). Removing Ca^++ lowered RT by about 35% over 2 hrs while restoration returned RT to baseline (41). […] Further, resealing was also shown to be dependent on E-cad because it was inhibited by antibodies (HECD-1, DECMA-1) or small synthetic peptides to its extracellular (N-terminal) domain of E-cad, but not by […] antibodies (4A2C7) to its intracellular (C-terminal) domain (41).
E-cadherin is a component of the adherens junction, a structure known to be important in junctional barrier function in most epithelia, including that of the esophagus (36, 41, 121). It is a single-span, transmembrane protein whose carboxy (C)-terminus resides in the cytoplasm and whose amino (N)-terminus resides in the intercellular space. The N-terminus of E-cadherin molecules from membranes of adjacent cells form a barrier by calcium-dependent binding to each other within the intercellular space. Since the protein bridges of E-cadherin both encircle the cell membrane and support the adhesion of the bridging proteins (occludin and claudins) forming the tight junction, they play an integral role in establishing junctional (electrical) resistance and controlling junctional permeability. This role for E-cadherin in (rabbit) EE has recently been shown in the Ussing chamber using the calcium-switch technique (41).

rabbit EE [7] = details: cited from earlier work
[8] = γ-secretase inhibitor 10 μM, acid-exposed EE

In the case of `C[C@H](NC(=O)Cc1cc(F)cc(F)c1)C(=O)N[C@H](C(=O)OC(C)(C)C)c1ccccc1` [DAPT75, DAPT], the “cleavage of E-cad” value [1, 8] was “did not block cleavage” and the “pattern of E-cad cleavage (CTFs on W-blot)” value [1, 8] was “yielding two CTFs instead of one”.
In the case of `CN(C)C(=O)COC(=O)Cc1ccc(OC(=O)c2ccc(NC(=N)N)cc2)cc1` [camostat mesilate], the esophagitis (esophagitis [2]) is listed as “reduce esophagitis” and the esophagitis (esophagitis [3]) is listed as “reduce esophagitis”.
In the case of “trypsin: barrier breaker at pH 7.4, can be present within refluxates of near-neutral pH”, the “breaks the barrier (RT as marker of PCP)” value (rabbit EE [4]; at pH 7.4) was “barrier breakers” and the “junctional damage by luminal trypsin (DIS, E-cad cleavage)” value (rabbit EE [4]; luminal exposure) was “results in both DIS (61) and cleavage of E-cad's extracellular domain”.
In the case of `C[C@H](CCC(=O)NCCS(=O)(=O)O)[C@H]1CC[C@H]2[C@@H]3[C@H](O)C[C@@H]4C[C@H](O)CC[C@]4(C)[C@H]3C[C@H](O)[C@]12C` [taurocholic acid], the “breaks the barrier (RT as marker of PCP)” value (rabbit EE [4]; at pH 2) was “barrier breakers”.
For `CC(=O)O[C@H]1C(=O)[C@@]2(C)[C@H]([C@H](OC(=O)c3ccccc3)[C@]3(O)C[C@H](OC(=O)[C@H](O)[C@@H](NC(=O)c4ccccc4)c4ccccc4)C(C)=C1C3(C)C)[C@]1(OC(C)=O)CO[C@@H]1C[C@@H]2O` [taxol], the “junctional opening by exposure to luminal pH 1.6” value (rabbit EE [5]) was “inhibit junctional opening”, the “junctional opening by Ca++-free soln” value (rabbit EE [6]; microtubule stabilizer, 50 μM) was “inhibited” and the junctional resealing (rabbit EE [6]; taxol, data normalized at the end of junctional opening in Ca++-free solution) was “Inhibition of resealing”.
With `CNC(=O)[C@@H](NC(=O)[C@H](CC(C)C)[C@H](O)C(=O)NO)C(C)(C)C` [Marimastat] the “cleavage of E-cad” value ([1]; Marimastat 10 μM, luminal HCl pH 1.1 for 30 min or serosal HCl pH 2.0 for 5 min) was “blocked; also recorded: abolition”.
For `C=C1[C@@H](C)[C@H]2[C@H](Cc3ccccc3)NC(=O)[C@]23[C@H](OC(C)=O)/C=C/[C@@](C)(O)C(=O)[C@@H](C)C/C=C/[C@H]3[C@@H]1O` [cytochalasin D], the “junctional resealing during the Ca++-switch technique” value (rabbit EE [6]; microfilament destabilizer, 2 uM) was “inhibited”.
For `O=S(=O)(O)CCN1CCN(CCO)CC1` [HEPES], the “luminal acid-induced increase in PCP (reduction in RT)” value (rabbit EE [7]; serosal HEPES) is listed as “without preventing the luminal acid-induced increase in PCP” and the “luminal acid-induced cell necrosis” value (rabbit EE [7]; serosal buffer replacing bathing solution bicarbonate) is listed as “prevented”.
With `CCO` [alcohol] the “breaks the barrier (RT as marker of PCP)” value (rabbit EE [4]; at pH 7.4) was “barrier breakers”.
In the case of `CC(=O)Nc1ccc(C=Cc2ccc(N=C=S)cc2S(=O)(=O)O)c(S(=O)(=O)O)c1` [SITS, 4-acetoamido-4′-isothiocyanostilbene-2,2′-disulfonic acid], the “cell swelling and necrosis” value (rabbit EE [7]; serosal HCl pH 2.0, serosal pretreatment 4 mM) is listed as “prevented”.
In the case of `COc1cc2c(c(OC)c1OC)-c1ccc(OC)c(=O)cc1[C@@H](NC(C)=O)CC2` [colchicine], the “junctional resealing during the Ca++-switch technique” value (rabbit EE [6]; microtubule destabilizer) was “inhibited”.
